Like-named read-outs stand apart in the source and are kept apart here. Blank lines part the entries; values can stand above or below the molecule they belong to.
What was measured:
[1] = test system: H3K9ac (the target of SIRT1, SIRT2 and SIRT6); assay: Sirtuin activity assay in HDF: H3K9ac levels (Western blot); type: cell-based, human; conditions: HDF treated 24h; for SIRT1,2,6 H3K9ac: Figure 1B; on SIRT1,2,6 H3K9ac: key: ↑: increase; ↓: decrease; hyphens that indicate no effect (-)
Procedure: (§1) Figure 1 (A) Schematic representation of the compound testing for sirtuin activity evaluation in HDF. Cells were treated with or without the compounds for 24h and harvested for analysis. […] (C) Western Blot analysis and (D) quantification of H4K16ac and H3K9ac levels in cells treated with Resveratrol or Shikimic acid at the indicated concentrations. H4K16 and H3K9 levels were normalized to H4 and H3 levels respectively. Student T-test, *p<0.05, **p<0.01, ***p<0.001.
(§2) HDFs were plated in 100x20 mm2 cell culture plates and after 24h, fresh cell culture medium containing the compounds was added. After 24h, cells were detached with cell scrapers, harvested, and processed for qPCR or western blot.
(§3) Protein levels were analyzed as previously described. Cells were directly lysed in 1x Laemmli Buffer (Bio-Rad, USA), incubated at 95° C and centrifuged. Supernatant was subjected to SDS-polyacrylamide gel electrophoresis, and successive steps were performed as described. The list of antibodies used is included in Supplementary Table 2.

[2] = test system: primary human dermal fibroblasts (HDFs)
Excerpt: In our efforts to identify novel factors that could prevent skin cell senescence, we developed a screening process to identify new modulators of the protective role of sirtuins in UV-induced senescence. For this purpose, we established a culture of primary human dermal fibroblasts (HDFs). […] Our first step in the screening was to establish the optimal concentrations of these compounds in the case of HDFs. […] Once established, we took these parameters into account to decide the specific working range of concentrations for each compound.
Human dermal fibroblasts (HDFs) (Promocell, Germany) from 40-year old Caucasian women were used as the in vitro model for compound viability and efficacy screening. Cells were cultured in Dulbecco's modified eagle medium (DMEM) low glucose (Biowest, France) supplemented with 10% fetal bovine serum (FBS) (Capricorn Scientific, Germany) and 10 U/mL penicillin/streptomycin (Biowest, France) in a humidified incubator at 37° C and 5% CO2. For cell passage, cells at 80% confluence were trypsinized and plated at 60% confluence. Cells between passage 13 and 18 were used for the assays. For the SIRT1 in vitro assay, HEK293 cells (ATCC, USA), used to transfect and immunoprecipitate SIRT1 protein, were grown in DMEM high glucose (Thermo Fisher Scientific, USA), supplemented with 10% FBS in a humidified incubator at 37° C and 5% CO2. The following experiments were all performed in triplicate.
(§4) The protocol for senescence induction using UVB irradiation is described in the Supplementary Methods. SA-β-Gal staining, WST-1, sulforhodamine B (SRB) and trypan blue assays were performed as previously described. For the siRNA experiments, the protocol for senescence induction using UVB irradiation was the same as in the Supplementary Methods. Specific siRNA (Horizon discovery, UK) for SIRT1, SIRT2, SIRT6, BiP or scramble siRNA were incubated for 6 hours before each irradiation step.

[3] = test system: H4K16ac (the target of SIRT1 and SIRT2); assay: Sirtuin activity assay in HDF: H4K16ac levels (Western blot); type: cell-based, human; conditions: HDF treated 24h; for SIRT1,2 H4K16ac: Figure 1B; on SIRT1,2 H4K16ac: key: ↑: increase; ↓: decrease; hyphens that indicate no effect (-)
Procedure: as §1, §2, §3

[4] = test system: HAS2 (hyaluronic acid synthase 2); assay: UVB-induced senescence assay: HAS2 gene expression (qPCR); type: cell-based, human
Procedure: (§5) In the second approach, we established a method for inducing senescence in these cells with 2 cycles of UVB irradiation 72h apart (Figure 2A). The use of UVA to induce senescence was discarded due to its considerably longer time requirement, being unsuitable to screen 30 compounds within a reasonable period. Cells were treated with these compounds throughout the duration of the assay and cellular senescence was monitored with two markers: accumulation of SA-β-galactosidase (SA-β-Gal) activity, and the decrease in expression of HAS2 (hyaluronic acid synthase 2), a previously reported marker of skin senescence.
(§6) Figure 2 (A) Schematic representation of the protocol for senescence induction using UVB irradiation. Cells were treated -/+ the compounds from day 1 to 7 after seeding, irradiated with UVB on days 2 and 5 and harvested for analysis on day 7. […] (C) Phase-contrast (left column) and bright field (right column) microscope images of SA-β-Gal staining showing non-irradiated cells, UVB-irradiated cells non-treated and treated with Gallic acid or Shikimic acid at the indicated concentrations. (D) Percentage of SA-β-Gal positive cells and (E) Relative HAS2 mRNA levels in non-irradiated cells, UVB-irradiated cells and UVB-irradiated cells treated with Gallic acid or Shikimic acid at the indicated concentrations. Student T-test, *p<0.05, **p<0.01, ***p<0.001.
RNA was extracted from cell pellets using the Total RNA Purification Kit (Norgen, Canada), according to the manufacturer’s protocol. Extracted RNA was quantified using a NanoDrop® ND-1000 UV-Vis Spectrophotometer (Thermo Fisher Scientific, USA) and 300 ng of RNA were retrotranscribed to cDNA using the PrimeScriptTM RT reagent kit (Takara Bio Inc., Japan). cDNA was diluted 1/10 in ultrapure water and qPCR mix was prepared by adding cDNA (12 ng), SYBR green supermix (Bio Rad, USA), forward and reverse primers (0.2μM). The primers and their respective sequences are listed in Supplementary Table 1. qPCR protocol included one step at 95° C for 30 s, 40 cycles at 95° C for 10s, and 60° C for 1min. The results were analyzed with Bio-Rad CFX Manager software. BACT was used as a housekeeping gene to normalize gene expression.
(§7) Senescence induction by UVB irradiation For the non-irradiation control conditions, HDF were […]
(§8) After 24h, culture medium was removed and well plates. After 24h, culture medium was removed replaced by fresh cell culture medium containing the and replaced with fresh cell culture medium containing compounds at different concentrations. After 24h, the compounds at different concentrations. […]
(§9) cell culture medium was removed, and cells were cells/plate in fresh cell culture medium containing the irradiated at 25 mJ/cm2 of UVB light (312 nm) in a Bio- compound in 6-well plates. After 3 days, cells were […]
(§10) amount of PBS. PBS was then removed and fresh cell fresh cell culture medium containing the compound in culture medium with the compound was added to each 6-well plates. After 2 days, cells were processed well. After 3 days, cells were irradiated again under the according to the qPCR, β-Gal staining, apoptosis, cell same conditions. After 2 days, cells were processed cycle or immunofluorescence protocols. according to the qPCR, β-Gal staining, apoptosis, cell cycle or immunofluorescence protocols.

[5] = test system: UVB-irradiated human dermal fibroblasts (HDFs); assay: UVB-induced senescence assay: SA-β-Gal staining; type: cell-based; conditions: for β-Gal: HDF, 2 cycles of UVB, compound day 1 to 7, Figure 2B; for prevention of UV-induced cellular senescence: SA-β-Gal and HAS2 markers; on β-Gal: key: ↑: increase; ↓: decrease; hyphens that indicate no effect (-)
Procedure: as §5, §6, §4, §7, §8, §9, §10

[6] = HDF, 2 cycles of UVB, compound day 1 to 7, Figure 2B
[7] = HDFs, WST-1 cell viability test
[8] = HDFs, WST-1 cell viability test, maximum non-cytotoxic dose

Max. non-cyt. doses ([2]; female, human): 5 mM
SMILES: Cc1ncc(CO)c(CO)c1O [Pyridoxine, reference compound]
SIRT1,2,6 H3K9ac [1]: -
LD50 ([2]; female, human): 16.92 mM
SIRT1,2 H4K16ac [3]: -
HAS2 expression [4, 6]: -
β-Gal [5]: -

SMILES: NC(=S)N/N=C/c1ccccc1O [Salicyladehyde thiosemicarbazone]
SIRT1,2,6 H3K9ac [1]: -
LD50 [2, 7]: 4.175 mM
Max. non-cyt. doses [2, 8]: 0.5 mM
SIRT1,2 H4K16ac [3]: -
HAS2 expression [4, 6]: -
β-Gal [5]: -

SMILES: O=c1c(O)c(-c2ccc(O)c(O)c2)oc2cc(O)cc(O)c12 [Quercetin, reference compound]
effect on H3K9ac levels [1]: induced a similar effect on both targets
LD50 [2, 7]: 0.604 mM
Max. non-cyt. doses ([2]; female, human): 0.25 mM
effect on H4K16ac levels [3]: induced a similar effect on both targets
HAS2 expression ([4]; UVB-irradiated HDF): only promoted HAS2 upregulation
β-Gal [5]: -

SMILES: Oc1ccc2c(c1)OCO2 [Sesamol]
effect on H3K9ac levels [1]: induced a similar effect on both targets
LD50 [2, 7]: 4.358 mM
Max. non-cyt. doses [2, 8]: 0.5 mM
effect on H4K16ac levels [3]: induced a similar effect on both targets
HAS2 expression [4, 6]: -
prevention of UV-induced cellular senescence ([5]; UVB-irradiated HDF): did not prevent cellular senescence

SMILES: O=C(OC[C@H]1OC(O)[C@@](O)(COC(=O)c2cc(O)c(O)c(O)c2)[C@@H]1O)c1cc(O)c(O)c(O)c1 (stereo partly shown) [Hamamelitannin]
SIRT1,2,6 H3K9ac [1]: -
LD50 [2, 7]: 0.247 mM
Max. non-cyt. doses [2, 8]: 0.1 mM
SIRT1,2 H4K16ac [3]: -
HAS2 expression [4, 6]: -
β-Gal [5]: -

SMILES: COc1cc(C=O)ccc1O [Vanillin]
SIRT1,2,6 H3K9ac [1]: -
LD50 ([2]; female, human): 5.912 mM
Max. non-cyt. doses ([2]; female, human): 1 mM
SIRT1,2 H4K16ac [3]: -
HAS2 expression [4, 6]: -
β-Gal [5]: -

SMILES: C/C(=C\CNc1ncnc2[nH]cnc12)CO [Zeatin]
effect on H3K9ac levels [1]: reduced the levels of H3K9ac only
LD50 [2, 7]: 2.462 mM
Max. non-cyt. doses [2, 8]: 1 mM
SIRT1,2 H4K16ac [3]: -
HAS2 expression [4, 6]: -
β-Gal [5]: -

SMILES: C[N+](C)(C)CC(=O)O [Betaine]
SIRT1,2,6 H3K9ac [1]: -
LD50 [2, 7]: 507.81 mM
Max. non-cyt. doses [2, 8]: 50 mM
SIRT1,2 H4K16ac [3]: -
HAS2 expression [4, 6]: -
β-Gal [5]: -

Max. non-cyt. doses ([2]; female, human): 0.05 mM
SMILES: Oc1ccc(/C=C/c2cc(O)cc(O)c2)cc1 [Resveratrol, reference compound]
effect on H3K9ac levels [1]: induced a similar effect on both targets
LD50 ([2]; female, human): 0.173 mM
effect on H4K16ac levels [3]: induced a similar effect on both targets
HAS2 expression [4, 6]: -
SA-β-Gal accumulation/staining ([5]; UVB-irradiated HDF): increased SA-β-Gal staining

SMILES: C=C1CC[C@@H]2[C@](C)(CO)[C@H](O)CC[C@@]2(C)[C@@H]1C/C=C1/C(=O)OC[C@H]1O [Andrographolide]
effect on H3K9ac levels [1]: induced a similar effect on both targets
LD50 [2, 7]: 0.124 mM
Max. non-cyt. doses [2, 8]: 0.01 mM
effect on H4K16ac levels [3]: induced a similar effect on both targets
HAS2 expression [4, 6]: -
β-Gal [5]: -
prevention of UV-induced cellular senescence ([5]; UVB-irradiated HDF): did not prevent cellular senescence
